Measured values as given in the NIST ThermoML archive (doi:10.1021/acs.jced.8b00229).
Numbers after ± are expanded uncertainties.

Conditions: Liquid, Vibrating tube method

C=CCCCC [hex-1-ene]
Conditions | mass density [kg/m3]
283.57 K, 1000 kPa | 683.2 ± 2
283.57 K, 3000 kPa | 685.2 ± 2
283.57 K, 5000 kPa | 687.2 ± 2
283.57 K, 10000 kPa | 691.9 ± 2
283.57 K, 15000 kPa | 696.4 ± 2
283.57 K, 20000 kPa | 700.6 ± 2
283.57 K, 25000 kPa | 704.7 ± 2.1
283.57 K, 30000 kPa | 708.5 ± 2.1
283.57 K, 35000 kPa | 712.4 ± 2.1
283.57 K, 45000 kPa | 719.4 ± 2.1
283.58 K, 500 kPa | 682.3 ± 2
283.58 K, 40000 kPa | 714.7 ± 2.1
283.58 K, 50000 kPa | 722.4 ± 2.1
283.58 K, 55000 kPa | 725.5 ± 2.1
283.58 K, 60000 kPa | 728.6 ± 2.2
283.58 K, 70000 kPa | 734.4 ± 2.2
283.58 K, 80000 kPa | 739.9 ± 2.2
283.59 K, 100 kPa | 682.2 ± 2
283.59 K, 90000 kPa | 745.2 ± 2.3
283.59 K, 100000 kPa | 750.1 ± 2.3
293.5 K, 1000 kPa | 674.1 ± 2
293.51 K, 100 kPa | 673.1 ± 2
293.51 K, 500 kPa | 673.5 ± 2
293.51 K, 3000 kPa | 676.3 ± 2
293.51 K, 5000 kPa | 678.4 ± 2
293.51 K, 10000 kPa | 683.5 ± 2
293.51 K, 20000 kPa | 692.8 ± 2
293.51 K, 25000 kPa | 697 ± 2.1
293.51 K, 30000 kPa | 701.1 ± 2.1
293.51 K, 35000 kPa | 704.9 ± 2.1
293.51 K, 55000 kPa | 718.9 ± 2.1
293.51 K, 60000 kPa | 722.1 ± 2.2
293.51 K, 70000 kPa | 728.2 ± 2.2
293.51 K, 80000 kPa | 733.8 ± 2.2
293.51 K, 90000 kPa | 739.3 ± 2.3
293.51 K, 100000 kPa | 744.4 ± 2.3
293.52 K, 15000 kPa | 688.3 ± 2
293.52 K, 40000 kPa | 708.6 ± 2.1
293.52 K, 45000 kPa | 712.5 ± 2.1
293.52 K, 50000 kPa | 715.6 ± 2.1
303.4 K, 500 kPa | 664.1 ± 2
303.4 K, 1000 kPa | 664.6 ± 2
303.41 K, 100 kPa | 663.5 ± 2
303.41 K, 3000 kPa | 667 ± 2
303.41 K, 5000 kPa | 669.3 ± 2
303.41 K, 10000 kPa | 674.8 ± 2
303.41 K, 15000 kPa | 679.9 ± 2
303.41 K, 20000 kPa | 684.7 ± 2.1
303.41 K, 25000 kPa | 689.2 ± 2.1
303.42 K, 30000 kPa | 693.5 ± 2.1
303.42 K, 35000 kPa | 698.2 ± 2.1
303.42 K, 40000 kPa | 701.5 ± 2.1
303.42 K, 45000 kPa | 705.8 ± 2.1
303.42 K, 50000 kPa | 708.8 ± 2.1
303.42 K, 55000 kPa | 712.8 ± 2.1
303.42 K, 60000 kPa | 715.5 ± 2.2
303.42 K, 70000 kPa | 721.8 ± 2.2
303.42 K, 80000 kPa | 727.7 ± 2.2
303.42 K, 90000 kPa | 733.2 ± 2.3
303.42 K, 100000 kPa | 738.5 ± 2.3
313.34 K, 100 kPa | 654.1 ± 2
313.34 K, 20000 kPa | 676.6 ± 2.1
313.35 K, 500 kPa | 654.2 ± 2
313.35 K, 1000 kPa | 655.3 ± 2
313.35 K, 3000 kPa | 657.9 ± 2
313.35 K, 5000 kPa | 660.3 ± 2
313.35 K, 10000 kPa | 666.1 ± 2
313.35 K, 15000 kPa | 671.6 ± 2
313.35 K, 25000 kPa | 681.4 ± 2.1
313.35 K, 30000 kPa | 685.9 ± 2.1
313.35 K, 35000 kPa | 690.2 ± 2.1
313.35 K, 40000 kPa | 694.3 ± 2.1
313.35 K, 45000 kPa | 698.3 ± 2.1
313.35 K, 50000 kPa | 701.9 ± 2.1
313.35 K, 55000 kPa | 705.7 ± 2.2
313.35 K, 60000 kPa | 709 ± 2.2
313.35 K, 80000 kPa | 721.9 ± 2.2
313.35 K, 90000 kPa | 727.6 ± 2.3
313.35 K, 100000 kPa | 733.2 ± 2.3
313.36 K, 70000 kPa | 715.9 ± 2.2
323.18 K, 100 kPa | 644.5 ± 2
323.18 K, 60000 kPa | 702.5 ± 2.2
323.19 K, 500 kPa | 644.9 ± 2
323.19 K, 1000 kPa | 645.8 ± 2
323.19 K, 3000 kPa | 648.6 ± 2
323.19 K, 5000 kPa | 651.3 ± 2
323.19 K, 10000 kPa | 657.6 ± 2
323.19 K, 50000 kPa | 695.2 ± 2.1
323.19 K, 55000 kPa | 699.3 ± 2.2
323.2 K, 15000 kPa | 663.4 ± 2
323.2 K, 20000 kPa | 668.8 ± 2.1
323.2 K, 30000 kPa | 678.6 ± 2.1
323.2 K, 35000 kPa | 683.4 ± 2.1
323.2 K, 40000 kPa | 687.3 ± 2.1
323.2 K, 70000 kPa | 709.4 ± 2.2
323.2 K, 80000 kPa | 715.7 ± 2.3
323.2 K, 90000 kPa | 721.6 ± 2.3
323.2 K, 100000 kPa | 727.2 ± 2.3
323.21 K, 25000 kPa | 673.8 ± 2.1
323.21 K, 45000 kPa | 691.8 ± 2.1
333.08 K, 500 kPa | 635.3 ± 2
333.08 K, 1000 kPa | 636 ± 2
333.08 K, 3000 kPa | 639.1 ± 2
333.08 K, 5000 kPa | 642 ± 2
333.08 K, 10000 kPa | 648.8 ± 2
333.09 K, 15000 kPa | 655 ± 2
333.09 K, 20000 kPa | 660.8 ± 2.1
333.09 K, 25000 kPa | 666.1 ± 2.1
333.09 K, 30000 kPa | 671.1 ± 2.1
333.09 K, 35000 kPa | 676.4 ± 2.1
333.09 K, 40000 kPa | 680.2 ± 2.1
333.09 K, 45000 kPa | 685.1 ± 2.1
333.09 K, 50000 kPa | 688.5 ± 2.1
333.09 K, 55000 kPa | 693 ± 2.2
333.09 K, 60000 kPa | 696.1 ± 2.2
333.09 K, 70000 kPa | 703.3 ± 2.2
333.09 K, 80000 kPa | 709.8 ± 2.3
333.09 K, 90000 kPa | 715.9 ± 2.3
333.09 K, 100000 kPa | 721.7 ± 2.3
342.96 K, 500 kPa | 625.6 ± 2
342.96 K, 1000 kPa | 626.4 ± 2
342.97 K, 3000 kPa | 629.8 ± 2
342.97 K, 5000 kPa | 633 ± 2
342.97 K, 10000 kPa | 640.3 ± 2
342.97 K, 15000 kPa | 647 ± 2
342.97 K, 20000 kPa | 653.2 ± 2.1
342.97 K, 25000 kPa | 658.8 ± 2.1
342.97 K, 30000 kPa | 664.1 ± 2.1
342.97 K, 35000 kPa | 669.6 ± 2.1
342.97 K, 40000 kPa | 673.8 ± 2.1
342.97 K, 45000 kPa | 678.8 ± 2.1
342.97 K, 50000 kPa | 682.3 ± 2.2
342.97 K, 55000 kPa | 687 ± 2.2
342.97 K, 60000 kPa | 690.4 ± 2.2
342.97 K, 70000 kPa | 697.6 ± 2.2
342.97 K, 80000 kPa | 704.3 ± 2.3
342.97 K, 90000 kPa | 710.7 ± 2.3
342.97 K, 100000 kPa | 716.6 ± 2.3
352.85 K, 500 kPa | 615.7 ± 2
352.85 K, 1000 kPa | 617 ± 2
352.85 K, 3000 kPa | 620.7 ± 2
352.85 K, 5000 kPa | 624.2 ± 2
352.85 K, 15000 kPa | 639.4 ± 2
352.86 K, 10000 kPa | 632.2 ± 2
352.86 K, 20000 kPa | 645.7 ± 2.1
352.86 K, 25000 kPa | 651.7 ± 2.1
352.86 K, 30000 kPa | 657.4 ± 2.1
352.86 K, 35000 kPa | 662.8 ± 2.1
352.86 K, 40000 kPa | 667.4 ± 2.1
352.86 K, 45000 kPa | 672.4 ± 2.1
352.86 K, 50000 kPa | 676.6 ± 2.2
352.86 K, 55000 kPa | 680.9 ± 2.2
352.86 K, 60000 kPa | 684.8 ± 2.2
352.86 K, 70000 kPa | 692.4 ± 2.2
352.86 K, 80000 kPa | 699.4 ± 2.3
352.86 K, 90000 kPa | 705.9 ± 2.3
352.86 K, 100000 kPa | 712 ± 2.4
362.7 K, 500 kPa | 604.1 ± 2
362.7 K, 1000 kPa | 605.5 ± 2
362.7 K, 100000 kPa | 705.7 ± 2.4
362.71 K, 3000 kPa | 609.5 ± 2
362.71 K, 5000 kPa | 613.3 ± 2
362.71 K, 10000 kPa | 622 ± 2
362.71 K, 15000 kPa | 629.7 ± 2
362.71 K, 20000 kPa | 636.7 ± 2.1
362.71 K, 25000 kPa | 643 ± 2.1
362.71 K, 30000 kPa | 648.9 ± 2.1
362.71 K, 35000 kPa | 654.7 ± 2.1
362.71 K, 40000 kPa | 659.6 ± 2.1
362.71 K, 45000 kPa | 664.8 ± 2.1
362.71 K, 50000 kPa | 669 ± 2.2
362.71 K, 55000 kPa | 673.7 ± 2.2
362.71 K, 60000 kPa | 677.6 ± 2.2
362.71 K, 70000 kPa | 685.4 ± 2.2
362.71 K, 80000 kPa | 692.6 ± 2.3
362.71 K, 90000 kPa | 699.3 ± 2.3
